Measured values reported in US8772480B2, “Inhibitors of PI3 kinase and/or mTOR” (priority 2009, dated 2014).

How the values were obtained:
Assay type in all cases: biochemical
[1] = target: ProfilerPro Kinase Selectivity Assay Kit kinases (Homo sapiens, UniProt O00141); conditions: SGK1; 1 μM compound concentration
[2] = target: ProfilerPro Kinase Selectivity Assay Kit kinases (Homo sapiens, UniProt P08069); conditions: IGF1R; 1 μM compound concentration
[3] = target: ProfilerPro Kinase Selectivity Assay Kit kinases (Homo sapiens, UniProt P49137); conditions: MAPKAPK2; 1 μM compound concentration
[4] = target: ProfilerPro Kinase Selectivity Assay Kit kinases (Homo sapiens, UniProt Q9P0L2); conditions: MARK1; 1 μM compound concentration
[5] = target: ProfilerPro Kinase Selectivity Assay Kit kinases (Homo sapiens, UniProt Q13177); conditions: PAK2; 1 μM compound concentration
Chain of ProfilerPro Kinase Selectivity Assay Kit kinases (Homo sapiens, UniProt Q13177) (Q13177 2-524 limits assumed): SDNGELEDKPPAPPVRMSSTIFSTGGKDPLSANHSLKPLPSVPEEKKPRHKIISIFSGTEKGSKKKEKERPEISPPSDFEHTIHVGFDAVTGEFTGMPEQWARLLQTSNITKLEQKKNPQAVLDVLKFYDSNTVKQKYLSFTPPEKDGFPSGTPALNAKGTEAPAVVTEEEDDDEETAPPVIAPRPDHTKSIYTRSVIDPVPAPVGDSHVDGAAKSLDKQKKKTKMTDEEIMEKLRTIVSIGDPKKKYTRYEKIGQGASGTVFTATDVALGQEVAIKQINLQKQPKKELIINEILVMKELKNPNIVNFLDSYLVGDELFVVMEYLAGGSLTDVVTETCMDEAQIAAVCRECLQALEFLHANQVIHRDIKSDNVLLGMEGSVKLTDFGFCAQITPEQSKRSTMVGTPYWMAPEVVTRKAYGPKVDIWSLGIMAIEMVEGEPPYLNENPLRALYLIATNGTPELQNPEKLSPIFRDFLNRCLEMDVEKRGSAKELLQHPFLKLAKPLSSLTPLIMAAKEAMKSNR

[6] = target: ProfilerPro Kinase Selectivity Assay Kit kinases (Homo sapiens, UniProt P28482); conditions: ERK2; 1 μM compound concentration
Chain of ProfilerPro Kinase Selectivity Assay Kit kinases (Homo sapiens, UniProt P28482) (P28482 2-360 limits assumed): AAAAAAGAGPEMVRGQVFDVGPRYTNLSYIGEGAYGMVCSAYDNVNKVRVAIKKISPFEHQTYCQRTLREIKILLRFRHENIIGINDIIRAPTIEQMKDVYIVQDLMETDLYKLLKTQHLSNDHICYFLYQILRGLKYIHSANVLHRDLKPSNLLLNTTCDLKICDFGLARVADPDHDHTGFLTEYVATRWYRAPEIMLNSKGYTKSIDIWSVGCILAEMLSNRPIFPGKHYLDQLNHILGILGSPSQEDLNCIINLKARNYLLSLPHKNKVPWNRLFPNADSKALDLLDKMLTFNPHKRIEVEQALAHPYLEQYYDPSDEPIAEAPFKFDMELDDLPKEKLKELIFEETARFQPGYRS

[7] = target: ProfilerPro Kinase Selectivity Assay Kit kinases (Homo sapiens, UniProt Q16539); conditions: p38 alpha; 1 μM compound concentration
Chain of ProfilerPro Kinase Selectivity Assay Kit kinases (Homo sapiens, UniProt Q16539) (Q16539 2-360 limits assumed): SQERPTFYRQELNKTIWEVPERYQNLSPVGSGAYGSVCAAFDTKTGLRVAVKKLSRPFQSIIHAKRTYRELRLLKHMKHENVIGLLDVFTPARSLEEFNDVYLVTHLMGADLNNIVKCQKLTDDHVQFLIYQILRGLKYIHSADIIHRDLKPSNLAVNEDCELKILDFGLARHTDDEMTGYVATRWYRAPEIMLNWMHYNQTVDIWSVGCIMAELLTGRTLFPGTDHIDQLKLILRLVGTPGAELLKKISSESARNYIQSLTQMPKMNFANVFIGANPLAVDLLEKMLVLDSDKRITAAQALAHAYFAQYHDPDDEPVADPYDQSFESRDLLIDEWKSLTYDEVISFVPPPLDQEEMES

[8] = target: ProfilerPro Kinase Selectivity Assay Kit kinases (Homo sapiens, UniProt Q13188); conditions: MST2; 1 μM compound concentration
[9] = target: ProfilerPro Kinase Selectivity Assay Kit kinases (Homo sapiens, UniProt P48730); conditions: CK1 delta; 1 μM compound concentration
[10] = target: ProfilerPro Kinase Selectivity Assay Kit kinases (Homo sapiens, UniProt P06239); conditions: LCK; 1 μM compound concentration
[11] = target: ProfilerPro Kinase Selectivity Assay Kit kinases (Homo sapiens, UniProt O14757); conditions: CHK1; 1 μM compound concentration
[12] = target: ProfilerPro Kinase Selectivity Assay Kit kinases (Homo sapiens, UniProt O95819); conditions: HGK; 1 μM compound concentration
Chain of ProfilerPro Kinase Selectivity Assay Kit kinases (Homo sapiens, UniProt O95819) (O95819 2-1239 limits assumed): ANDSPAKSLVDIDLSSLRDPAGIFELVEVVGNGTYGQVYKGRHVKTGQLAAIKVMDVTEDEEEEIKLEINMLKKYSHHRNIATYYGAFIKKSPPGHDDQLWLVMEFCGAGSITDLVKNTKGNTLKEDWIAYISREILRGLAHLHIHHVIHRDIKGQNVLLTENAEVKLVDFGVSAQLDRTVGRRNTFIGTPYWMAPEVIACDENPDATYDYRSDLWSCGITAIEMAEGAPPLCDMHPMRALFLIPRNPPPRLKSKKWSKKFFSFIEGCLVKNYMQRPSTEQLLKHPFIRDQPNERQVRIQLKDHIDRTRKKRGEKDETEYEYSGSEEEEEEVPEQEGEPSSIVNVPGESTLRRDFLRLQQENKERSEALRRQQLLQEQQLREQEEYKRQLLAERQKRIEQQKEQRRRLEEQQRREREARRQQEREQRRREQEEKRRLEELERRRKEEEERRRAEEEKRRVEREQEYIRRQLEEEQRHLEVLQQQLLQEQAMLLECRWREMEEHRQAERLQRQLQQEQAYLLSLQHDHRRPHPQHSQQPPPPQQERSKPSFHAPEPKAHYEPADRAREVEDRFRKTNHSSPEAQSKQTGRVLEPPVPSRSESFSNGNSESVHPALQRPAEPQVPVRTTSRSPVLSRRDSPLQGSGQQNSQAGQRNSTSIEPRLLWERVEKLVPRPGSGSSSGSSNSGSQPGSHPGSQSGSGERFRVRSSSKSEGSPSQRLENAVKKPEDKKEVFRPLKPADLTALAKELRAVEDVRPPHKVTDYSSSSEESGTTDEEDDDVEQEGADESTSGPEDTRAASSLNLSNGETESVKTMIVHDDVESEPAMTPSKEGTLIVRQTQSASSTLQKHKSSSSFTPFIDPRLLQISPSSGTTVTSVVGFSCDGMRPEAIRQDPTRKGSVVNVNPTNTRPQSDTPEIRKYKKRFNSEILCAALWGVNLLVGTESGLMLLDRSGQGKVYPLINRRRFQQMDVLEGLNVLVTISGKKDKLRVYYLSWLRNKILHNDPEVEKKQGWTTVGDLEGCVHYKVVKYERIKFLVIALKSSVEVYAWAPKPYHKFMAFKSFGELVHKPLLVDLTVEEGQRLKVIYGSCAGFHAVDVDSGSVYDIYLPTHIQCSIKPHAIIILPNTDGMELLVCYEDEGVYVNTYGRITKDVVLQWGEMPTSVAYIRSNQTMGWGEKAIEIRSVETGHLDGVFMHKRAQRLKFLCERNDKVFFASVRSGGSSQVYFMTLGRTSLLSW

[13] = target: ProfilerPro Kinase Selectivity Assay Kit kinases (Homo sapiens, UniProt O96017); conditions: CHK2; 1 μM compound concentration
[14] = target: ProfilerPro Kinase Selectivity Assay Kit kinases (Homo sapiens, UniProt Q8IW41); conditions: PRAK; 1 μM compound concentration
[15] = target: ProfilerPro Kinase Selectivity Assay Kit kinases (Homo sapiens, UniProt P17612); conditions: PKA alpha; 1 μM compound concentration
[16] = target: ProfilerPro Kinase Selectivity Assay Kit kinases (Homo sapiens, UniProt P31751); conditions: AKT2; 1 μM compound concentration
[17] = target: ProfilerPro Kinase Selectivity Assay Kit kinases (Homo sapiens, UniProt P08581); conditions: cMET; 1 μM compound concentration
Chain of ProfilerPro Kinase Selectivity Assay Kit kinases (Homo sapiens, UniProt P08581) (P08581 25-1390 limits assumed): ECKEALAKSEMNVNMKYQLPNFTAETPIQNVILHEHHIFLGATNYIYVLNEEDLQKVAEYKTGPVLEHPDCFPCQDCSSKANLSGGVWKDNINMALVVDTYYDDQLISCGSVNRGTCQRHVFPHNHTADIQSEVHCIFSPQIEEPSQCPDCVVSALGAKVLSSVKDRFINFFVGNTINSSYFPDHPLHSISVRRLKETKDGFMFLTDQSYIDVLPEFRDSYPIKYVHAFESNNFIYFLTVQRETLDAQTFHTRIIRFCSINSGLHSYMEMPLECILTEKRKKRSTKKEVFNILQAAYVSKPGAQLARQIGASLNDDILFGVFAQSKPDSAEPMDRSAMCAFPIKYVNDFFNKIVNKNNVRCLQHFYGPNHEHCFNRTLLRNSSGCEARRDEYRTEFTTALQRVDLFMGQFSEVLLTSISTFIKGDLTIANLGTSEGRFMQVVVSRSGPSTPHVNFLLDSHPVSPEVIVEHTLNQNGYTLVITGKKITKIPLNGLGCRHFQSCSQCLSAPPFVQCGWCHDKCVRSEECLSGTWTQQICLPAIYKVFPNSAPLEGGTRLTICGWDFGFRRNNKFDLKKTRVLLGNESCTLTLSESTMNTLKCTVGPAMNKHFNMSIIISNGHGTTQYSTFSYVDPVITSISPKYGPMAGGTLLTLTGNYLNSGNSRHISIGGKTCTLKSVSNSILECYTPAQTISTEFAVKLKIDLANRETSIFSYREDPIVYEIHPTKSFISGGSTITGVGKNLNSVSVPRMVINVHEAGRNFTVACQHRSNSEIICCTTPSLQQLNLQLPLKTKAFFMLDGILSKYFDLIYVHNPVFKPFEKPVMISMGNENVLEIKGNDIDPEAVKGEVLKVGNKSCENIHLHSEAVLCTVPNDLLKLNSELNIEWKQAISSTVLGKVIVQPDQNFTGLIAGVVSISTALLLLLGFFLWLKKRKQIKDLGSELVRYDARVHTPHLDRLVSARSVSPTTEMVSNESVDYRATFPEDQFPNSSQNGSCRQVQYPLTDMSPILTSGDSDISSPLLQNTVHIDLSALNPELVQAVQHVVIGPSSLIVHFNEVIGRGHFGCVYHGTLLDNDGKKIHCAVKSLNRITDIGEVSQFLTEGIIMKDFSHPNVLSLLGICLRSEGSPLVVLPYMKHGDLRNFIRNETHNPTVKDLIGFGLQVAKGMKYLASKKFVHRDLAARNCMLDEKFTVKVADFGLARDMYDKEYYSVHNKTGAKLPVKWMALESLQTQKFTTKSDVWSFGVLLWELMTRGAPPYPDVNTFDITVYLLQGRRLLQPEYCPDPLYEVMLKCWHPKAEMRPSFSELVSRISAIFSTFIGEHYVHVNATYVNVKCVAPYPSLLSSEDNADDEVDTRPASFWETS

[18] = target: ProfilerPro Kinase Selectivity Assay Kit kinases (Homo sapiens, UniProt Q9BZL6); conditions: PKD2; 1 μM compound concentration
[19] = target: ProfilerPro Kinase Selectivity Assay Kit kinases (Homo sapiens, UniProt O75116); conditions: ROCK2; 1 μM compound concentration
[20] = target: ProfilerPro Kinase Selectivity Assay Kit kinases (Homo sapiens, UniProt P27361); conditions: ERK1; 1 μM compound concentration
[21] = target: ProfilerPro Kinase Selectivity Assay Kit kinases (Homo sapiens, UniProt Q06187); conditions: BTK; 1 μM compound concentration
Chain of ProfilerPro Kinase Selectivity Assay Kit kinases (Homo sapiens, UniProt Q06187) (Q06187 2-659 limits assumed): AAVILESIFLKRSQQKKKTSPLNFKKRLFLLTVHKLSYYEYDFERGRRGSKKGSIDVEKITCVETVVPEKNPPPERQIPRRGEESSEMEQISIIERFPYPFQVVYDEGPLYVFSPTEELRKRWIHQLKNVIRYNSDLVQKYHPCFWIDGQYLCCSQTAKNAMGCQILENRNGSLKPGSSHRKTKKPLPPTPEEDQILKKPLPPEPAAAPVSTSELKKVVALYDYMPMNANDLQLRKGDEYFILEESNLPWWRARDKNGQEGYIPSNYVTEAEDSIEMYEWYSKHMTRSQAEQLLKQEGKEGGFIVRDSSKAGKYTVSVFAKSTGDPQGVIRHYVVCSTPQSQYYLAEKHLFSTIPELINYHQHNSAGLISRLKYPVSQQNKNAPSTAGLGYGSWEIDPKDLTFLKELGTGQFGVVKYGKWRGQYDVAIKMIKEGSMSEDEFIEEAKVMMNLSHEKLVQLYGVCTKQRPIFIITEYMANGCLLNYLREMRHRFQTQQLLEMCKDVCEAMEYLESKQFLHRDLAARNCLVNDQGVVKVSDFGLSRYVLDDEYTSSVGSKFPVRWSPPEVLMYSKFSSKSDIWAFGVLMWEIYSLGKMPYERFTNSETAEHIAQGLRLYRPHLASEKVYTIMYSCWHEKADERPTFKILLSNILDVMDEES

[22] = target: ProfilerPro Kinase Selectivity Assay Kit kinases (Homo sapiens, UniProt O75582); conditions: MSK1; 1 μM compound concentration
[23] = target: ProfilerPro Kinase Selectivity Assay Kit kinases (Homo sapiens, UniProt P06241); conditions: FYN; 1 μM compound concentration
Chain of ProfilerPro Kinase Selectivity Assay Kit kinases (Homo sapiens, UniProt P06241) (P06241 2-537 limits assumed): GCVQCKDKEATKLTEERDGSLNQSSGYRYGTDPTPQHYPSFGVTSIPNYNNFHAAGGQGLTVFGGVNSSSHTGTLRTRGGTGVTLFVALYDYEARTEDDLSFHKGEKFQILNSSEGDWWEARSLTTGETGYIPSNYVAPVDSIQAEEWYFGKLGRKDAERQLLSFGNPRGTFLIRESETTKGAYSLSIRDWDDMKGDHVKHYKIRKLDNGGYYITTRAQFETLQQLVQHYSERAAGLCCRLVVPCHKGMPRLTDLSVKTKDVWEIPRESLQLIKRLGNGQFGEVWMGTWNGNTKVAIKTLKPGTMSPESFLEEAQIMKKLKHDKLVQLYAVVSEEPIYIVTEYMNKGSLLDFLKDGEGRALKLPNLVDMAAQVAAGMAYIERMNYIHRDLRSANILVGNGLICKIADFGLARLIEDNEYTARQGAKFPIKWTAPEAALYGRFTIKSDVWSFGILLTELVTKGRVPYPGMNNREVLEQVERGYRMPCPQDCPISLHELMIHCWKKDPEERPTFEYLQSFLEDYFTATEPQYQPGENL

[24] = target: ProfilerPro Kinase Selectivity Assay Kit kinases (Homo sapiens, UniProt P31749); conditions: AKT1; 1 μM compound concentration
[25] = target: ProfilerPro Kinase Selectivity Assay Kit kinases (Homo sapiens, UniProt P00519); conditions: ABL; 1 μM compound concentration
[26] = target: ProfilerPro Kinase Selectivity Assay Kit kinases (Homo sapiens, UniProt Q16566); conditions: CAMK4; 1 μM compound concentration
[27] = target: ProfilerPro Kinase Selectivity Assay Kit kinases (Homo sapiens, UniProt P04049); conditions: cRAF; 1 μM compound concentration
[28] = target: ProfilerPro Kinase Selectivity Assay Kit kinases (Homo sapiens, UniProt P43405); conditions: SYK; 1 μM compound concentration
[29] = target: ProfilerPro Kinase Selectivity Assay Kit kinases (Homo sapiens, UniProt P07948); conditions: LYN; 1 μM compound concentration
[30] = target: ProfilerPro Kinase Selectivity Assay Kit kinases (Homo sapiens, UniProt P49841); conditions: GSK3 beta; 1 μM compound concentration
[31] = target: ProfilerPro Kinase Selectivity Assay Kit kinases (Homo sapiens, UniProt P35968); conditions: KDR; 1 μM compound concentration

| POC (Percent of control) SGK1 [1] [POC] | POC (Percent of control) IGF1R [2] [POC] | POC (Percent of control) MAPKAPK2 [3] [POC] | POC (Percent of control) MARK1 [4] [POC] | POC (Percent of control) PAK2 [5] [POC] | POC (Percent of control) ERK2 [6] [POC] | POC (Percent of control) p38 alpha [7] [POC] | POC (Percent of control) MST2 [8] [POC] | POC (Percent of control) CK1 delta [9] [POC] | POC (Percent of control) LCK [10] [POC] | POC (Percent of control) CHK1 [11] [POC] | POC (Percent of control) HGK [12] [POC] | POC (Percent of control) CHK2 [13] [POC] | POC (Percent of control) PRAK [14] [POC] | POC (Percent of control) PKA alpha [15] [POC] | POC (Percent of control) AKT2 [16] [POC] | POC (Percent of control) cMET [17] [POC] | POC (Percent of control) PKD2 [18] [POC] | POC (Percent of control) ROCK2 [19] [POC] | POC (Percent of control) ERK1 [20] [POC] | Compound | further results |
| --- | --- | --- | --- | --- | --- | --- | --- | --- | --- | --- | --- | --- | --- | --- | --- | --- | --- | --- | --- | --- | --- |
| 97 | 64 | 93 | 112 | 96 | 96 | 86 | 96 | 35 | 72 | 97 | 92 | 94 | 95 | 97 | 93 | 104 | 97 | 98 | 104 | c1cnc(Nc2cccc3[nH]ncc23)c(-c2ncnc3[nH]cnc23)c1 [Example 18, N-(3-(9H-Purin-6-yl)Pyridin-2-yl)-1H-Indazol-4-Amine] | POC (Percent of control) BTK [21]: 99 POC; POC (Percent of control) MSK1 [22]: 97 POC; POC (Percent of control) FYN [23]: 86 POC; POC (Percent of control) AKT1 [24]: 103 POC; POC (Percent of control) ABL [25]: 77 POC; POC (Percent of control) CAMK4 [26]: 71 POC; POC (Percent of control) cRAF [27]: 1 POC; POC (Percent of control) SYK [28]: 63 POC; POC (Percent of control) LYN [29]: 81 POC; POC (Percent of control) GSK3 beta [30]: 92 POC; POC (Percent of control) KDR [31]: 89 POC |
| 88 | 94 | 90 | 95 | 105 | 94 | 86 | 82 | 72 | 70 | 83 | 50 | 18 | 84 | 70 | 110 | 89 | 97 | 104 | 93 | c1cnc(Nc2cccc3[nH]ccc23)c(-c2ncnc3[nH]cnc23)c1 [Example 19, N-(3-(9H-Purin-6-yl)Pyridin-2-yl)-1H-Indol-4-Amine] | POC (Percent of control) BTK [21]: 75 POC; POC (Percent of control) MSK1 [22]: 106 POC; POC (Percent of control) FYN [23]: 33 POC; POC (Percent of control) AKT1 [24]: 94 POC; POC (Percent of control) ABL [25]: 19 POC; POC (Percent of control) CAMK4 [26]: 77 POC; POC (Percent of control) cRAF [27]: 56 POC; POC (Percent of control) SYK [28]: 15 POC; POC (Percent of control) LYN [29]: 50 POC; POC (Percent of control) GSK3 beta [30]: 79 POC; POC (Percent of control) KDR [31]: 29 POC |
| 99 | 97 | 98 | 109 | 99 | 103 | 101 | 98 | 91 | 97 | 103 | 97 | 102 | 106 | 97 | 97 | 106 | 99 | 94 | 99 | Cc1nc(N)nc(-c2cccnc2Nc2cccc3[nH]ccc23)n1 [Example 22, N-(3-(4-Amino-6-Methyl-1,3,5-Triazin-2-yl)Pyridin-2-yl)-1H-Indol-4-Amine] | POC (Percent of control) BTK [21]: 99 POC; POC (Percent of control) MSK1 [22]: 103 POC; POC (Percent of control) FYN [23]: 103 POC; POC (Percent of control) AKT1 [24]: 102 POC; POC (Percent of control) ABL [25]: 103 POC; POC (Percent of control) CAMK4 [26]: 95 POC; POC (Percent of control) cRAF [27]: 98 POC; POC (Percent of control) SYK [28]: 96 POC; POC (Percent of control) LYN [29]: 108 POC; POC (Percent of control) GSK3 beta [30]: 94 POC; POC (Percent of control) KDR [31]: 106 POC |

| Compound | POC (Percent of control) SGK1 [1] [POC] | POC (Percent of control) IGF1R [2] [POC] | POC (Percent of control) MAPKAPK2 [3] [POC] | POC (Percent of control) MARK1 [4] [POC] | POC (Percent of control) PAK2 [5] [POC] | POC (Percent of control) ERK2 [6] [POC] | POC (Percent of control) p38 alpha [7] [POC] | POC (Percent of control) MST2 [8] [POC] | POC (Percent of control) CK1 delta [9] [POC] | POC (Percent of control) LCK [10] [POC] | POC (Percent of control) CHK1 [11] [POC] | POC (Percent of control) HGK [12] [POC] | POC (Percent of control) CHK2 [13] [POC] | POC (Percent of control) PRAK [14] [POC] | POC (Percent of control) PKA alpha [15] [POC] | POC (Percent of control) AKT2 [16] [POC] | POC (Percent of control) cMET [17] [POC] | POC (Percent of control) PKD2 [18] [POC] | POC (Percent of control) ROCK2 [19] [POC] | POC (Percent of control) ERK1 [20] [POC] | further results |
| --- | --- | --- | --- | --- | --- | --- | --- | --- | --- | --- | --- | --- | --- | --- | --- | --- | --- | --- | --- | --- | --- |
| COc1ccc(Nc2ncccc2-c2ncnc3[nH]cnc23)cn1 [Example 20, N-(6-Methoxypyridin-3-yl)-3-(9H-Purin-6-yl)Pyridin-2-Amine] | 95 | 93 | 100 | 108 | 103 | 101 | 93 | 95 | 93 | 101 | 104 | 94 | 103 | 99 | 97 | 92 | 106 | 100 | 101 | 96 | POC (Percent of control) BTK [21]: 98 POC; POC (Percent of control) MSK1 [22]: 93 POC; POC (Percent of control) FYN [23]: 101 POC; POC (Percent of control) AKT1 [24]: 105 POC; POC (Percent of control) ABL [25]: 99 POC; POC (Percent of control) CAMK4 [26]: 100 POC; POC (Percent of control) cRAF [27]: 59 POC; POC (Percent of control) SYK [28]: 107 POC; POC (Percent of control) LYN [29]: 92 POC; POC (Percent of control) GSK3 beta [30]: 95 POC; POC (Percent of control) KDR [31]: 93 POC |
